Reference: patent publication US20260265301A1, “LONG-ACTING K-OPIOID RECEPTOR AGONIST” (CHENGDU AODA BIOTECHNOLOGY CO., LTD, priority 2023, published 2026)
pEC50: −log10 of the molar value. Where a SMILES comes first, the peptide text is derived from it. Bridges are numbered along the chain shown (N, C = ends). Roman numbers before positions name the chains, in order. [ ]: non-standard residue; d: D form. The star is where a group is joined. X1 = O=C(O)CCCCCCCCCCCCCCCCC(=O)N[C@@H](CCC(=O)NCCOCCOCCOCCOCC(=O)*)C(=O)O; Api = NC1(C(=O)O)CCNCC1

molecular target: T1, human κ opioid receptor (OPRK1) (Homo sapiens, UniProt P41145); assay: Agonist activity: inhibition of forskolin-stimulated cAMP release (HTRF) in CHO-K1 cells stably expressing opioid receptors; type: cell-based; details: CHO-K1 cell line stably expressing opioid receptors; forskolin-stimulated cAMP, HTRF
T1 construct: expressed in transfected cells; host or cells: CHO-K1
Source text: Gi-coupled human κ opioid receptor (OPRK1), upon stimulation with its specific opioid receptor agonists, can inhibit the intracellular adenylate cyclase pathway, and decrease cAMP levels. Forskolin can stimulate cAMP release in cell lines highly expressing opioid receptors. By stimulating cell lines stably transfected with opioid receptors, the inhibitory effect of a test compound on forskolin-stimulated cAMP release can be measured to determine the activity of the compound. The relative light units (RLU) from the cells after stimulation with different doses were measured via the homogeneous time-resolved fluorescence (HTRF) technique, and the EC50 of the agonist was subsequently calculated. This activity determination method is a currently commonly used method for determining the activities of opioid receptor agonists at home and abroad.
A CHO-K1 cell line stably expressing opioid receptors was used. Stably transfected cells were stimulated with various concentrations of agonists (under the stimulation of a certain concentration of forskolin). The relative light units from the cells after stimulation with different doses were measured, from which the EC50 value of the agonist was subsequently obtained by calculation.

T1 sequence (P41145 whole entry): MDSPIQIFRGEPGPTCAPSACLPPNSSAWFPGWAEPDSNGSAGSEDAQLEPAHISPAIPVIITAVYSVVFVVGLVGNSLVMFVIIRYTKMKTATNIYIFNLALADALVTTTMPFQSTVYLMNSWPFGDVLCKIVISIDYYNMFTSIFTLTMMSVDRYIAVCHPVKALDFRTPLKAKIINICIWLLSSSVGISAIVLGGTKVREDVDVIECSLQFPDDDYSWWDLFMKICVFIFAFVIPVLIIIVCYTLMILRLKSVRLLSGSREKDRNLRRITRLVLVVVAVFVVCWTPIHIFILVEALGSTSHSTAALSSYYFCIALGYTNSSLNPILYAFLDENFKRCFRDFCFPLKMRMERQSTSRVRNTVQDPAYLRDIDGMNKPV

SMILES	pEC50
CC(C)C[C@@H](NC(=O)[C@@H](Cc1ccccc1)NC(=O)[C@H](N)Cc1ccccc1)C(=O)N[C@H](CCCCN)C(=O)N1CCC(N)(C(=O)O)CC1 [Difelikefalin, reference compound]	9.19

same assay, conditions: relative to Difelikefalin = 100%

SMILES	Relative Activity % [%]
CCOc1ccc(C[C@@H](NC(=O)[C@H](N)Cc2ccccc2)C(=O)N[C@H](CC(C)C)C(=O)N[C@H](CCCCN)C(=O)N2CCC(N)(C(=O)N[C@@H](CCCCNC(=O)COCCOCCOCCOCCNC(=O)CC[C@H](NC(=O)CCCCCCCCCCCCCCCCC(=O)O)C(=O)O)C(N)=O)CC2)cc1 [Compound 1, D-Phe-D-Tyr(Et)-D-Leu-D-Lys-4-aminopiperidine-4-carboxamide-Lys(PEG4CH2CO-γGlu-octadecanedioic acid)-NH2]	15.6
CCOc1ccc(C[C@@H](NC(=O)[C@H](N)Cc2ccccc2)C(=O)N[C@H](CC(C)C)C(=O)N[C@H](CCCCN)C(=O)N2CCC(N)(C(=O)NCCOCC(=O)N[C@@H](CCCCNC(=O)COCCOCCOCCOCCNC(=O)CC[C@H](NC(=O)CCCCCCCCCCCCCCCCC(=O)O)C(=O)O)C(N)=O)CC2)cc1 [Compound 2, D-Phe-D-Tyr(Et)-D-Leu-D-Lys-4-aminopiperidine-4-carboxamide-PEG1CH2CO-Lys(PEG4CH2CO-γGlu-octadecanedioic acid)-NH2]	20.7
CCOc1ccc(C[C@@H](NC(=O)[C@H](N)Cc2ccccc2)C(=O)N[C@H](CC(C)C)C(=O)N[C@H](CCCCN)C(=O)N2CCC(N)(C(=O)NCCOCCOCC(=O)N[C@@H](CCCCNC(=O)COCCOCCOCCOCCNC(=O)CC[C@H](NC(=O)CCCCCCCCCCCCCCCCC(=O)O)C(=O)O)C(N)=O)CC2)cc1 [Compound 3, D-Phe-D-Tyr(Et)-D-Leu-D-Lys-4-aminopiperidine-4-carboxamide-AEEA-Lys(PEG4CH2CO-γGlu-octadecanedioic acid)-NH2]	23.8
CCOc1ccc(C[C@@H](NC(=O)[C@H](N)Cc2ccccc2)C(=O)N[C@H](CC(C)C)C(=O)N[C@H](CCCCN)C(=O)N2CCC(N)(C(=O)NCCOCCOCCOCCOCC(=O)N[C@@H](CCCCNC(=O)COCCOCCOCCOCCNC(=O)CC[C@H](NC(=O)CCCCCCCCCCCCCCCCC(=O)O)C(=O)O)C(N)=O)CC2)cc1 [Compound 4, D-Phe-D-Tyr(Et)-D-Leu-D-Lys-4-aminopiperidine-4-carboxamide-PEG4CH2CO-Lys(PEG4CH2CO-γGlu-octadecanedioic acid)-NH2]	17.2
COc1ccc(C[C@@H](NC(=O)[C@H](N)Cc2ccccc2)C(=O)N[C@H](CC(C)C)C(=O)N[C@H](CCCCN)C(=O)N2CCC(N)(C(=O)NCCOCCOCC(=O)N[C@@H](CCCCNC(=O)COCCOCCOCCOCCNC(=O)CC[C@H](NC(=O)CCCCCCCCCCCCCCCCC(=O)O)C(=O)O)C(N)=O)CC2)cc1 [Compound 5, D-Phe-D-Tyr(Me)-D-Leu-D-Lys-4-aminopiperidine-4-carboxamide-AEEA-Lys(PEG4CH2CO-γGlu-octadecanedioic acid)-NH2]	13.6
CC(C)C[C@@H](NC(=O)[C@@H](Cc1ccc(Cl)cc1)NC(=O)[C@H](N)Cc1ccccc1)C(=O)N[C@H](CCCCN)C(=O)N1CCC(N)(C(=O)NCCOCCOCC(=O)N[C@@H](CCCCNC(=O)COCCOCCOCCOCCNC(=O)CC[C@H](NC(=O)CCCCCCCCCCCCCCCCC(=O)O)C(=O)O)C(N)=O)CC1 [Compound 6, D-Phe-D-Phe(4-Cl)-D-Leu-D-Lys-4-aminopiperidine-4-carboxamide-AEEA-Lys(PEG4CH2CO-γGlu-octadecanedioic acid)-NH2]	12.2
CC(C)C[C@@H](NC(=O)[C@@H](Cc1ccc(F)cc1)NC(=O)[C@H](N)Cc1ccccc1)C(=O)N[C@H](CCCCN)C(=O)N1CCC(N)(C(=O)NCCOCCOCC(=O)N[C@@H](CCCCNC(=O)COCCOCCOCCOCCNC(=O)CC[C@H](NC(=O)CCCCCCCCCCCCCCCCC(=O)O)C(=O)O)C(N)=O)CC1 [Compound 7, D-Phe-D-Phe(4-F)-D-Leu-D-Lys-4-aminopiperidine-4-carboxamide-AEEA-Lys(PEG4CH2CO-γGlu-octadecanedioic acid)-NH2]	10.5
CCOc1ccc(C[C@@H](NC(=O)[C@H](N)Cc2ccccc2)C(=O)N[C@H](CC(C)C)C(=O)N[C@H](CCCCN)C(=O)N2CCC(N)(C(=O)NCCOCCOCC(=O)N[C@@H](CCCCNC(=O)COCCOCCOCCNC(=O)CC[C@H](NC(=O)CCCCCCCCCCCCCCCCC(=O)O)C(=O)O)C(N)=O)CC2)cc1 [Compound 8, D-Phe-D-Tyr(Et)-D-Leu-D-Lys-4-aminopiperidine-4-carboxamide-AEEA-Lys(PEG3CH2CO-γGlu-octadecanedioic acid)-NH2]	17.7
CCOc1ccc(C[C@@H](NC(=O)[C@H](N)Cc2ccccc2)C(=O)N[C@H](CC(C)C)C(=O)N[C@H](CCCCN)C(=O)N2CCC(N)(C(=O)NCCOCCOCC(=O)N[C@@H](CCCCNC(=O)COCCOCCOCCOCCOCCNC(=O)CC[C@H](NC(=O)CCCCCCCCCCCCCCCCC(=O)O)C(=O)O)C(N)=O)CC2)cc1 [Compound 9, D-Phe-D-Tyr(Et)-D-Leu-D-Lys-4-aminopiperidine-4-carboxamide-AEEA-Lys(PEG5CH2CO-γGlu-octadecanedioic acid)-NH2]	16.4
CCOc1ccc(C[C@@H](NC(=O)[C@H](N)Cc2ccccc2)C(=O)N[C@H](CC(C)C)C(=O)N[C@H](CCCCN)C(=O)N2CCC(N)(C(=O)NCC(=O)N[C@@H](CCCCNC(=O)COCCOCCOCCOCCNC(=O)CC[C@H](NC(=O)CCCCCCCCCCCCCCCCC(=O)O)C(=O)O)C(N)=O)CC2)cc1 [Compound 10, D-Phe-D-Tyr(Et)-D-Leu-D-Lys-4-aminopiperidine-4-carboxamide-Gly-Lys(PEG4CH2CO-γGlu-octadecanedioic acid)-NH2]	15.1
CCOc1ccc(C[C@@H](NC(=O)[C@H](N)Cc2ccccc2)C(=O)N[C@H](CC(C)C)C(=O)N[C@H](CCCCN)C(=O)N2CCC(N)(C(=O)NCC(=O)NCC(=O)N[C@@H](CCCCNC(=O)COCCOCCOCCOCCNC(=O)CC[C@H](NC(=O)CCCCCCCCCCCCCCCCC(=O)O)C(=O)O)C(N)=O)CC2)cc1 [Compound 11, D-Phe-D-Tyr(Et)-D-Leu-D-Lys-4-aminopiperidine-4-carboxamide-Gly-Gly-Lys(PEG4CH2CO-γGlu-octadecanedioic acid)-NH2] (I: H-[Api]GGK(X1)-NH2 / II: H-[dF][dY](Et)[dL][dK]; amide I:1-II:C; N-terminus assumed)	16.9
CCOc1ccc(C[C@@H](NC(=O)[C@H](N)Cc2ccccc2)C(=O)N[C@H](CC2CC2)C(=O)N[C@H](CCCCN)C(=O)N2CCC(N)(C(=O)NCCOCCOCC(=O)N[C@@H](CCCCNC(=O)COCCOCCOCCOCCNC(=O)CC[C@H](NC(=O)CCCCCCCCCCCCCCCCC(=O)O)C(=O)O)C(N)=O)CC2)cc1 [Compound 12, D-Phe-D-Tyr(Et)-D-Cyclopropylalanine-D-Lys-4-aminopiperidine-4-carboxamide-AEEA-Lys(PEG4CH2CO-γGlu-octadecanedioic acid)-NH2]	15.2

system: not listed separately; assay: Preliminary pharmacokinetic properties after subcutaneous administration; type: in vivo; details: cynomolgus monkey; male Macaca fascicularis, subcutaneous (SC), 0.1 mg/kg, plasma, LC-MS; read-out: t½ (converted)
Description: The compound with the best activity was selected for determination of its preliminary pharmacokinetic properties. Two male Macaca fascicularis were used as experimental animals. A subcutaneous administration was performed at a dose of 0.1 mg/kg. Venous blood samples were collected before administration (0 h) and at 1 h, 2 h, 3 h, 4 h, 8 h, 12 h, 18 h, 24 h, 48 h, 96 h, 144 h, and 168 h post-administration. Plasma samples were separated by centrifugation. The plasma concentration of the compound in the plasma samples was determined using liquid chromatography-mass spectrometry.

SMILES	half-life [h]
CCOc1ccc(C[C@@H](NC(=O)[C@H](N)Cc2ccccc2)C(=O)N[C@H](CC(C)C)C(=O)N[C@H](CCCCN)C(=O)N2CCC(N)(C(=O)NCCOCCOCC(=O)N[C@@H](CCCCNC(=O)COCCOCCOCCOCCNC(=O)CC[C@H](NC(=O)CCCCCCCCCCCCCCCCC(=O)O)C(=O)O)C(N)=O)CC2)cc1 [Compound 3, D-Phe-D-Tyr(Et)-D-Leu-D-Lys-4-aminopiperidine-4-carboxamide-AEEA-Lys(PEG4CH2CO-γGlu-octadecanedioic acid)-NH2]	55.1
